Results on 1 compound are retold here after patent US5283243A, “Piperidinoalkylbenzoxazine and piperidinoalkylbenzothiazine compounds, and medicaments containing them” (Kali-Chemie Pharma GmbH, priority 1990, dated 1994).

Molecules are shown by their SMILES.

Experiment [1] has as its system Passive cutaneous anaphylaxis (PCA). Briefly: Inhibition of passive cutaneous anaphylaxis (PCA). The format is in vivo, Sprague-Dawley rats. Conditions: Rattus norvegicus, 1 h; rats, 2 × 10^-5 mole/kg dose per os, one hour before ovalbumin challenge; read-out: % inhibition of Passive cutaneous anaphylaxis (PCA). The procedure:
(§1) 1. Determining Inhibition of Passive Cutaneous Anaphylaxis (PCA) and Histamine-Induced Anaphylactoid Cutaneous Reaction
The PCA reaction is carried out following the methods described by Goose et al. (J.N. Immunology 16 (1969), 749) and by Martin et al. (Arch. Pharmacol. 316 (1981), 186).
The IgE-rich ovalbumin antiserum used in the test was obtained from immunized Brown-Norway rats. The were immunized with an intraperitoneal injection of a mixture of 100 μg of ovalbumin with a Bordetella pertussis suspension (Vaxicoq™, Manufactured by Institute Merieux, containing 5×10^9 organisms and 1.25 mg Al(OH)3). After 20 days the animals were re-immunized with a further intraperitoneal injection of a solution of 10 μg ovalbumin in 0.5 ml physiological saline solution. After a further four days the blood was removed from the animals and centrifuged. The resulting antiserum was stored at -20° C. until use.
(§2) The inhibition of the passive cutaneous anaphylaxis and of the anaphylactoid cutaneous reaction induced by histamine was determined as follows:
Sprague-Dawley rats having a body weight of 150-180 g were injected intradermally in one flank with 50 μl of a 1:75 dilution of the IgE-rich ovalbumin antiserum in physiological saline solution to passively sensitize them to ovalbumin.
24 hours after sensitization a solution of 8.25 mg/kg of ovalbumin and 26.4 mg/kg of a blue dye (Evans's Blue) was administered to the rats intravenously according to Martin et al. to trigger passive cutaneous anaphylaxis.
(§3) On the day of the experiment the test substances were dissolved in distilled water which contained 1 vol. % dimethylformamide and 1 vol. % of Tween™ 20 (=polyoxyethylene (20) sorbitan monolaurate). One hour before administration of the ovalbumin challenge, each animal was orally administered 2×10^-5 mole/kg of test substance in 0.5 ml of solution. For comparison purposes a control group received only the solvent.
(§4) The edematous anaphylactic (PCA) and anaphylactoid (histamine-induced) reactions caused by the stimulation of the intravenous ovalbumin injection, which manifested themselves by edema formation, swelling and exudation of blue dye, were evaluated 30 minutes after their initiation by the intravenous ovalbumin injection. This was done by visually determining the extent to which the blue dye emerged at the sites of edema formation. The percentage inhibition of anaphylactic and anaphylactoid reactions induced by the test substances in comparison with the reactions of the control animals not treated with any test substance was determined using comparison scales.
(§5) The results obtained using compounds of formula I according to the foregoing test methods are shown in the following Table A. The example numbers given for the compounds of formula I relate to the subsequent preparative examples.

For experiment [2], the system named is 5-lipoxygenase (LTC4 release). Briefly: 5-Lipoxygenase inhibition: LTC4 release from zymosan-stimulated mouse peritoneal macrophage cells. The format is cell-based. The settings on record: Peritoneal macrophage cell; zymosan-stimulated mouse peritoneal macrophage cells, 10^-5 mole/l; read-out: In vitro % inhibition upon release of LTC4. An excerpt: 5. In vitro Determination of Cyclooxygenase Inhibition and 5-Lipoxygenase Inhibition
After a cell is activated, arachidonic acid contained in cell membranes is metabolized in two ways. Leucotrienes, inter alia leucotriene C4, are formed due to the action of the enzyme 5-lipoxyqenase (=5-LO), and prostanoids are formed due to the action of the enzyme cyclooxygenase (=CO). In in vitro systems these metabolites are secreted from the cell.
To evaluate the cyclooxygenase-inhibiting and 5-lipoxygenase-inhibiting properties of the test substances, their inhibitory activity on the biosynthesis of the arachidonic acid derivatives leucotriene C4 (=LTC4) and 6-keto-prostaglandin F1α (=6-keto-PGF1 α) was determined in vitro on mouse peritoneal macrophage cells. For this purpose the LTC4 and 6-keto-PGF1 α contents of a mouse peritoneal macrophage cell culture medium were determined by zymosan stimulation as described by Scott et al. (J. Exp. Med. 152 (1980), 324-335) and by Fradin et al., (Prostaglandins, 33 (1987), 579-589).
A cell suspension containing peritoneal cells from male mice 8-10 weeks old was obtained in a known manner. A solution marketed under the designation RPMI 1640 (Manufactured by Gibco) was used as the cell culture medium, to which heparin (10 international units/ml) and antibiotics were added according to the procedure of Bonney et al. (Biochem. J. 176 (1978) 422-433). The cell suspension was adjusted to a cell concentration of 10^6 cells per ml and distributed uniformly on titer dishes containing 24 1-ml titer cells (wells). These were kept for two hours in a humidified incubator filled with air enriched with 7% CO2. Cells not adhering to the titer well walls were then removed by washing. The remaining macrophage cells adhering to the walls were incubated for about 12 hours in a suspension medium to which 0.1% of bovine serum albumin (BSA=Bovine Serum Albumin) was added. The suspension medium was then replaced by a Hanks salt solution (=Hanks Balanced Salt Solution=HBSS) with 10 mmoles of Hepes (=hydroxyethylpiperazinoethanesulfonic acid) to which a 0.1% strength solution of the test substances in aqueous, 1% strength dimethylformamide or only the solvent had been added. After 15 minutes the arachidonic acid metabolism was stimulated by adding […] of zymosan (=glycoprotein mixture isolated from cell walls of beer yeast, Saccharomyces cerevisiae, Manufactured by Sigma Chemical Co., Munich) per titre cell. After 2 hours samples of the respective supernatant liquid in each cell were examined for their 6-keto-PGF1α and LTC4 contents by an enzyme immunoassay (=EIA). This EIA is carried out following the method of Pradelles et al. (Analytical Chem. 57 (1985), 1170-1173). The determination of LTC4 and the determination of 6-keto-PGF1α were each carried out on suitable dilutions of the samples (1:50 to 1:250 for the LTC4 determination and 1:250 to 1:1,250 for the 6-keto-PGF1α determination) in comparison with a comparative scale. To determine the inhibiting effect of a 10^-5 molar concentration of the compounds, the amounts of reference eicosanoid were determined, and the inhibiting effect was calculated therefrom in % inhibition compared to the measurements of the zymosan controls.

In experiment [3] the test system is Histamine-induced anaphylactoid reaction. As to the kind of experiment: Inhibition of histamine-induced anaphylactoid cutaneous reaction. Type of experiment: in vivo, Sprague-Dawley rats. The settings on record: Rattus norvegicus, 1 h; rats, 2 × 10^-5 mole/kg dose per os, one hour before challenge; read-out: % inhibition of Histamine-induced anaphylactoid reaction. As to the method:
as §1, §2
To determine the histamine-induced anaphylactoid skin reaction, the animals are injected intradermally in the flank opposite to the antiserum administration with 50 μl of a physiological saline solution containing 0.8 mg/ml histamine directly before the intravenous injection of the solution containing the ovalbumin and the blue dye.
as §3, §4, §5

With `O=C1Nc2ccccc2SC1CCCN1CCC(Nc2nc3ccccc3n2Cc2ccc(F)cc2)CC1` (stereo not drawn) [Example 8], the inhibition in vivo at 20 µmol/kg in experiment [1] and in experiment [3] was 100% each time. Moreover, in experiment [2], the inhibition (commonly the percentage by which the read-out fell short of the control) at 10 µM turned out to be 40%.
